How the values were obtained:
[1] = molecular target: DPP-IV (Homo sapiens, UniProt P27487); experiment: Tolerance of GLP-1 and its analogues to DPP-IV (RP-HPLC remaining peak area); type: in vitro ADME; conditions: peptide 25 μM, DPP-IV 0.5 ng/μL, 37° C.; for Remaining peak area (%)/DPP-IV: 0.0 h; for remaining at 0.5 h, 25 μM / remaining at 2 h, 25 μM / remaining at 4 h, 25 μM / remaining at 8 h, 25 μM / remaining at 12 h, 25 μM: isolated DPP-IV enzyme in buffer, pH 8
Experimental: (§1) Mix by centrifugation at 8000 rpm for 30 seconds.
(2) Arrange a certain volume of 0.005 μg/μL DPP-IV solution in another sterile EP.

[2] = molecular target: NEP24.11 (Homo sapiens, UniProt P08473); experiment: Tolerance of GLP-1 and its analogues to NEP24.11 (RP-HPLC remaining peak area); type: in vitro ADME; conditions: for Remaining peak area (%)/NEP24.11: 0.0 h; for Remaining peak area (%)/NEP24.11 / remaining at 0.5 h, 30 μM / remaining at 2 h, 30 μM / remaining at 4 h, 30 μM / remaining at 8 h, 30 μM: 37° C.; for remaining at 0.5 h, 30 μM / remaining at 2 h, 30 μM / remaining at 4 h, 30 μM / remaining at 8 h, 30 μM: isolated NEP24.11 enzyme in buffer; for remaining at 0.5 h, 30 μM: pH 7.4, 0.5 h; for remaining at 2 h, 30 μM: pH 7.4, 2.0 h; for remaining at 4 h, 30 μM: pH 7.4, 4.0 h; for remaining at 8 h, 30 μM: pH 7.4, 8.0 h, read-out: Remaining peak area (%)/NEP24.11
Sequence of NEP24.11 (P08473 whole entry): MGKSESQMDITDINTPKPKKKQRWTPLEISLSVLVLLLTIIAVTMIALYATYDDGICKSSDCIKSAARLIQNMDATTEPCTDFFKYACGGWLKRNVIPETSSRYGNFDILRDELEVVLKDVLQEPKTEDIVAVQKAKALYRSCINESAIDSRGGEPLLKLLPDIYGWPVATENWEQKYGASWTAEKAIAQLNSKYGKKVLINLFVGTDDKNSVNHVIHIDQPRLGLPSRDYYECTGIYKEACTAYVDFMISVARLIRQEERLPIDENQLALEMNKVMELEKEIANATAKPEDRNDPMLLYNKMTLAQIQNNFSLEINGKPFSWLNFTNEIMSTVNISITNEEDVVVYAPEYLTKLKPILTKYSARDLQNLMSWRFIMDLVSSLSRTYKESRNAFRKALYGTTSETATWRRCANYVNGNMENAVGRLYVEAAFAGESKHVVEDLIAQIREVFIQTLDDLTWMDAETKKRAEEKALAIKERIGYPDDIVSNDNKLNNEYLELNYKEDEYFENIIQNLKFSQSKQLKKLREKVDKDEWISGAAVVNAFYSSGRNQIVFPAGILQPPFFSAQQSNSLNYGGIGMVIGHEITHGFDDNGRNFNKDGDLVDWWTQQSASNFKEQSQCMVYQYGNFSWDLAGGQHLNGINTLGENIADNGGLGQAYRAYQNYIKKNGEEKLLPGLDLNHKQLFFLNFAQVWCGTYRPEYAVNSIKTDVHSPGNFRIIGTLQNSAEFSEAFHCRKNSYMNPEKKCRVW
Experimental: as §1
Arrange a certain volume of 0.04 μg/μL NEP24.11 enzyme solution in another sterile EP.

[3] = molecular target: chymotrypsin (Bos taurus, UniProt P00766); experiment: in vitro; conditions: isolated enzyme chymotrypsin, pH 7.8, Remaining peak area (%)/chymotrypsin
Summary of the method: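 Peptide and 0.05 μg/μL chymotrypsin were preincubated at 37 °C for 5 min, then mixed. Aliquots taken from 1.5 up to 60.0 min were quenched with 10% TFA, and remaining peptide was measured as RP-HPLC peak area.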

[4] = molecular target: T1, trypsin (Bos taurus, UniProt P00760); experiment: in vitro; conditions: isolated enzyme trypsin, pH 7.8
T1 sequence (P00760 24-246): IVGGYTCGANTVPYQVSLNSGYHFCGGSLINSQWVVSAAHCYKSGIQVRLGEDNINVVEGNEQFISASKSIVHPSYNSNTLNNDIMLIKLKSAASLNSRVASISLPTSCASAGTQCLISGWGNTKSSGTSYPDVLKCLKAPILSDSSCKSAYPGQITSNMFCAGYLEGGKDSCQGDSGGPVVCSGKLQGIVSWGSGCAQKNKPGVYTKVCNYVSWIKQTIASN
Experimental: FIG. 17. […] At different time point, 25 μL aliquots was taken out, and 10% (v/v) TFA was added to terminate the reaction.
as §1
(§2) Arrange a certain volume of 0.05 μg/μL trypsin solution in another sterile EP. Incubate the EP tubes containing peptides and enzymes at 37° C. for 5 min, and separately add 6 μL of trypsin solution to each EP tube containing peptides and mix well. Start timing and extract 25 μL of reaction solution at 1.5, 3.0, 4.5, 6.0 and 9.0 min later, respectively. Add 3.75 μL of 10% TFA to terminate the reaction and mix well by centrifugation at 8000 rpm for 30 seconds.
as §2, with “and” for “and separately”, “9” for “6”, “6.0, 9.0, 15.0, 30.0,” for “6.0”, “60.0” for “9.0”
Referring to the experimental method in Example 5, in vitro stability of salmon Calcitonin analogs with oral administration activity to the enzymatic hydrolysis by trypsin, chymotrypsin and elastase were performed.
Referring to the experimental method in Example 5, in vitro stability of IL-17A inhibitory peptides towards the enzymatic hydrolysis by trypsin, chymotrypsin and elastase were performed.

[5] = peptide 30 μM, NEP24.11 1.0 ng/μL

Sequence of DPP-IV (P27487 whole entry, species assumed): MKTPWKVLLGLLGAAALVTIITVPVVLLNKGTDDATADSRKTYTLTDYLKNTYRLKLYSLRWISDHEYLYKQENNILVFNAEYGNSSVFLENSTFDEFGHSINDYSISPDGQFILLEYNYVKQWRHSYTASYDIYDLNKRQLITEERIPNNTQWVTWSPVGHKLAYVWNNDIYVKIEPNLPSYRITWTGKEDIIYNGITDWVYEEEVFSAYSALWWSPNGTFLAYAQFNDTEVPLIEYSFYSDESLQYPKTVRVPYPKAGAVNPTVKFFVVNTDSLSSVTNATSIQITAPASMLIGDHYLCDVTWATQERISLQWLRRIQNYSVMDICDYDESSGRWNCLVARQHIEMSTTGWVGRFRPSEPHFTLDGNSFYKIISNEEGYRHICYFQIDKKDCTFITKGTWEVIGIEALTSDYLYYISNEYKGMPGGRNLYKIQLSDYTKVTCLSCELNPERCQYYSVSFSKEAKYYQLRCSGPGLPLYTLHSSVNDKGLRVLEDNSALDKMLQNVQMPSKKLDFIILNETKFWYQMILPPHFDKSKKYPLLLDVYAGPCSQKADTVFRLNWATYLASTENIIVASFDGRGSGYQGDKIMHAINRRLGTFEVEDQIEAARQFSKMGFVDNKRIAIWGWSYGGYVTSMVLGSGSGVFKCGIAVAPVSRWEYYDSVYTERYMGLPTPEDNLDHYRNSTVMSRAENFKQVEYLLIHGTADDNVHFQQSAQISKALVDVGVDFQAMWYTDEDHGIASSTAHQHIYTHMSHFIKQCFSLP

Row | Compound | Remaining peak area (%)/DPP-IV [1] | remaining at 0.5 h, 25 μM [1] | remaining at 2 h, 25 μM [1] | remaining at 4 h, 25 μM [1] | remaining at 8 h, 25 μM [1] | remaining at 12 h, 25 μM [1] | Remaining peak area (%)/NEP24.11 [2, 5] | remaining at 0.5 h, 30 μM [2, 5] | remaining at 2 h, 30 μM [2, 5] | remaining at 4 h, 30 μM [2, 5] | remaining at 8 h, 30 μM [2, 5] | remaining at 0.025 h, 60 μM [3] | remaining at 0.05 h, 60 μM [3] | remaining at 0.075 h, 60 μM [3] | remaining at 0.1 h, 60 μM [3] | remaining at 0.15 h, 60 μM [3] | remaining at 0.025 h, 60 μM [4] | remaining at 0.05 h, 60 μM [4] | remaining at 0.075 h, 60 μM [4] | remaining at 0.1 h, 60 μM [4] | other results
1 | CC[C@H](C)[C@H](NC(=O)[C@H](Cc1ccccc1)NC(=O)[C@H](CCC(=O)O)NC(=O)[C@H](CCCCN)NC(=O)[C@H](C)NC(=O)[C@H](C)NC(=O)[C@H](CCC(N)=O)NC(=O)CNC(=O)[C@H](CCC(=O)O)NC(=O)[C@H](CC(C)C)NC(=O)[C@H](Cc1ccc(O)cc1)NC(=O)[C@H](CO)NC(=O)[C@H](CO)NC(=O)[C@@H](NC(=O)[C@H](CC(=O)O)NC(=O)[C@H](CO)NC(=O)[C@@H](NC(=O)[C@H](Cc1ccccc1)NC(=O)[C@@H](NC(=O)CNC(=O)[C@H](CCC(=O)O)NC(=O)[C@H](C)NC(=O)[C@H](Cc1c[nH]cn1)NC(=O)CNC(=O)CNC(=O)[C@H](CCCNC(=N)N)NC(=O)[C@H](CO)NC(=O)[C@H](Cc1ccccc1)NC(=O)[C@H](CCCNC(=N)N)NC(=O)[C@H](CCC(N)=O)NC(=O)CNC(=O)CN)[C@@H](C)O)[C@@H](C)O)C(C)C)C(=O)N[C@@H](C)C(=O)N[C@@H](Cc1c[nH]c2ccccc12)C(=O)N[C@@H](CC(C)C)C(=O)N[C@H](C(=O)N[C@@H](CCCCN)C(=O)NCC(=O)N[C@@H](CCCNC(=N)N)C(=O)NCC(=O)NCC(=O)N[C@@H](CCCCN)C(=O)O)C(C)C [N-GLP-1] | 100.0 ± 0.0% | 73.9 ± 5% | 76.9 ± 3% | 79.6 ± 2.3% | 74.9 ± 5.3% | 74.6 ± 10.1% | 100.0 ± 0.0% | 83.9 ± 2.8% | 54.9 ± 13.6% | 51 ± 6.5% | 56.4 ± 15.8% | 65.8 ± 2.6% | 69.3 ± 4% | 66.2 ± 1.9% | 60.9 ± 0.8% | 45.8 ± 5.4% | 16.9 ± 1.6% | 3.7 ± 5.3% | 1.2 ± 1.7% | 0% | remaining amount after NEP24.11 hydrolysis ([2]; 8 hours, peptide 30 μM, NEP24.11 1.0 ng/μL): about 56.4%; remaining at 0.15 h, 60 μM [4]: 0%
2 | CC[C@H](C)[C@H](NC(=O)[C@H](Cc1ccccc1)NC(=O)[C@H](CCC(=O)O)NC(=O)[C@H](CCCCN)NC(=O)[C@H](C)NC(=O)[C@H](C)NC(=O)[C@H](CCC(N)=O)NC(=O)CNC(=O)[C@H](CCC(=O)O)NC(=O)[C@H](CC(C)C)NC(=O)[C@H](Cc1ccc(O)cc1)NC(=O)[C@H](CO)NC(=O)[C@H](CO)NC(=O)[C@@H](NC(=O)[C@H](CC(=O)O)NC(=O)[C@H](CO)NC(=O)[C@@H](NC(=O)[C@H](Cc1ccccc1)NC(=O)[C@@H](NC(=O)CNC(=O)[C@H](CCC(=O)O)NC(=O)[C@H](C)NC(=O)[C@H](Cc1c[nH]cn1)NC(=O)CNC(=O)CNC(=O)[C@H](CCCNC(=N)N)NC(=O)[C@H](CO)NC(=O)[C@H](Cc1ccccc1)NC(=O)[C@H](CCCNC(=N)N)NC(=O)[C@H](CCC(N)=O)NC(=O)CN)[C@@H](C)O)[C@@H](C)O)C(C)C)C(=O)N[C@@H](C)C(=O)N[C@@H](Cc1c[nH]c2ccccc12)C(=O)N[C@@H](CC(C)C)C(=O)N[C@H](C(=O)N[C@@H](CCCCN)C(=O)NCC(=O)N[C@@H](CCCNC(=N)N)C(=O)NCC(=O)NCC(=O)N[C@@H](CCCCN)C(=O)NCC(=O)N[C@H]1CSSC[C@@H](C(=O)N[C@@H](Cc2ccccc2)C(=O)O)NC(=O)[C@H]([C@@H](C)CC)NC(=O)[C@@H]2CCCN2C(=O)[C@@H]2CCCN2C(=O)[C@H]([C@@H](C)CC)NC(=O)[C@H](CO)NC(=O)[C@H](CCCCN)NC(=O)[C@H]([C@@H](C)O)NC(=O)[C@H](C)NC(=O)[C@H](CCCNC(=N)N)NC(=O)CNC1=O)C(C)C [N-GLP-1-BT9] | 100.0 ± 0.0% | 90 ± 3% | 89.5 ± 1.8% | 89.6 ± 3.6% | 89.2 ± 1% | 89.3 ± 7.5% | 100.0 ± 0.0% | 85.9 ± 2.8% | 74.9 ± 1.4% | 66.8 ± 2.1% | 52.7 ± 3.9% | 75.5 ± 5.3% | 56.3 ± 2.1% | 47 ± 1.6% | 38.1 ± 2.2% | 24.2 ± 3% | 105 ± 3% | 104 ± 2.8% | 102 ± 3% | 104 ± 6.4% | remaining at 0.15 h, 60 μM [4]: 103 ± 3.5%; remaining at 0.25 h, 60 μM [4]: 102 ± 4.9%; remaining at 0.5 h, 60 μM [4]: 96.4 ± 9.9%; remaining at 1 h, 60 μM [4]: 86.3 ± 6.4%
3 | CC[C@H](C)[C@H](NC(=O)[C@H](Cc1ccccc1)NC(=O)[C@H](CCC(=O)O)NC(=O)[C@H](CCCCN)NC(=O)[C@H](C)NC(=O)[C@H](C)NC(=O)[C@H](CCC(N)=O)NC(=O)CNC(=O)[C@H](CCC(=O)O)NC(=O)[C@H](CC(C)C)NC(=O)[C@H](Cc1ccc(O)cc1)NC(=O)[C@H](CO)NC(=O)[C@H](CO)NC(=O)[C@@H](NC(=O)[C@H](CC(=O)O)NC(=O)[C@H](CO)NC(=O)[C@@H](NC(=O)[C@H](Cc1ccccc1)NC(=O)[C@@H](NC(=O)CNC(=O)[C@H](CCC(=O)O)NC(=O)[C@H](C)NC(=O)[C@H](Cc1c[nH]cn1)NC(=O)CNC(=O)CNC(=O)CNC(=O)CNC(=O)CNC(=O)CNC(=O)CN)[C@@H](C)O)[C@@H](C)O)C(C)C)C(=O)N[C@@H](C)C(=O)N[C@@H](Cc1c[nH]c2ccccc12)C(=O)N[C@@H](CC(C)C)C(=O)N[C@H](C(=O)N[C@@H](CCCCN)C(=O)NCC(=O)N[C@@H](CCCNC(=N)N)C(=O)NCC(=O)O)C(C)C [G7-GLP-1] | 100.0 ± 0.0% | 42.1 ± 15.5% | 51.1 ± 6.5% | 55.3 ± 14.4% | 42.3 ± 9.6% | 34.5 ± 2.1% | 100.0 ± 0.0% | 63 ± 5.1% | 27.2 ± 7.2% | 11.5 ± 0.3% | 0% | 72.1 ± 11.5% | 45.8 ± 6.5% | 38 ± 2.3% | 29.3 ± 4.7% | 11.3 ± 3.2% | 21 ± 2.9% | 17.2 ± 0.8% | 9.8 ± 2.9% | 4.5 ± 0.8% | remaining prototype peptide after DPP-IV treatment ([1]; 12 hours): about 34.5%; degradation by NEP24.11 (in words) ([2]; after 8 hours): almost completely degraded; remaining at 0.15 h, 60 μM [4]: 3.4 ± 1.7%
